The values that follow come from PubChem BioAssay AID652109 (The Scripps Research Institute Molecular Screening Center, 2013).

Active and inactive are the calls of the source. How the calls were made is not given here.

In the assay the target is Serine/threonine-protein phosphatase PP1-alpha catalytic subunit (Homo sapiens) (UniProt P62136). Put plainly: PP1 phosphatase inhibitors, late-stage follow-up, biochemical, OMFP substrate, fluorescence (AID 652109). Particulars: PP1 dephosphorylation of OMFP, at 6.7 µM, stronger effect = higher value.
Serine/threonine-protein phosphatase PP1-alpha catalytic subunit (Homo sapiens), sequence (P62136 whole entry, looked up): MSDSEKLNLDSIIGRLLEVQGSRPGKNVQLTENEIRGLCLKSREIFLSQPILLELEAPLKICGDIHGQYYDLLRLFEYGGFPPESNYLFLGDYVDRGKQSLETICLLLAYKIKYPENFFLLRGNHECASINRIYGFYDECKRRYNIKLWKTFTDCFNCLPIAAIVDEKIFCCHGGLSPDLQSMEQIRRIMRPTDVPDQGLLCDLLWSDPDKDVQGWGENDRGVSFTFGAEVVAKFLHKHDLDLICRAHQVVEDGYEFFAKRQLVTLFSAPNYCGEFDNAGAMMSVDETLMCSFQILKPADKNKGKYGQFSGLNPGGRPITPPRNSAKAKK
As for `O=C1CCCC2=C1C1(O)C(=O)c3ccccc3C1(O)O2` (centres undefined), the inhibition is 3.09% (inactive).

Take `CC(C)(CS(=O)(=O)[O-])NC(=O)CC[N+](C)(C)CCO`: the inhibition is 49.4%.

Turning to `CCCN(CC1CC1)c1nc(N)c2c(N)nc(OC)cc2c1C#N`, the inhibition was 3.83% (inactive).

As to `COc1ccc(Sc2nc(-c3ccccn3)ncc2OC)cc1`, the inhibition is 71.2%.

Take `O=C(O)c1cc(-c2ccc(Cl)c(Cl)c2)n(-c2ccc(F)cc2)n1`: the inhibition is 57.1%.

`COc1ccc2c(Cl)c(C(=O)N/N=C/c3ccc4c(c3)OCO4)sc2c1`: the inhibition was 23% (inactive).

`COc1ccc(C(=O)c2nccc3cc(OC)c(OC)cc23)cc1OC`: the inhibition is 0.984% (inactive).

As to `O=C(NC1(O)C(=O)c2ccccc2C1=O)c1c(Cl)cccc1Cl`, the inhibition is 0.361% (inactive).

Regarding `CCOC(=O)c1sc(N2C(=O)C(O)=C(C(=O)c3ccco3)C2c2cccc([N+](=O)[O-])c2)nc1C` (centres undefined), the inhibition was 32.7%.

Regarding `Nc1nc(-c2ccccn2)nc(N)c1Cc1ccc(Cl)cc1Cl`, the inhibition is 65.9%.

`CCCCN(CC)c1nc(N)c2c(N)nc(OCC)cc2c1C#N`: the inhibition is 3.48% (inactive).

As for `COc1cnc(-c2ccccn2)nc1Sc1ccccc1Cl`, the inhibition is 68.5%.

Regarding `CCOC(=O)c1cnc(-n2nc(C)cc2C)nc1NCc1ccccc1`, the inhibition was 58.3%.

Turning to `COc1ccc(Cn2c(N)c(C(=O)NCc3ccco3)c3nc4ccccc4nc32)cc1OC`, the inhibition is 3.29% (inactive).

On to `COc1cc(Br)c(C(=O)c2nccc3cc(OC)c(OC)cc23)cc1OC`, for which the inhibition is -4.95% (inactive).

Turning to `c1ccc(-c2nccc(-c3ccc(-n4cnc5ccccc54)cc3)n2)nc1`, the inhibition was 62.4%.

For the compound `N#Cc1c(-c2ccc(Cl)cc2)cc(-c2cccs2)nc1SCC(=O)O`, the inhibition was 46.6%.

Turning to `COc1ccc(OCCCC(=O)Nc2nc(-c3ccccn3)cs2)cc1`, the inhibition was 33.3%.

As to `CCn1c2ccccc2c2cc(NC(=O)COC(=O)c3ccc(NC(=O)CC#N)cc3)ccc21`, the inhibition is 47.2%.

As to `CCOC(=O)c1nn(-c2ccc(C)cc2)c(=O)c2c(N)scc12`, the inhibition is 6.08% (inactive).

Take `CCOc1ccc(NC(=S)Nc2ccc3nsnc3c2)cc1`: the inhibition was 4.8% (inactive).

For the compound `CCOC(=O)c1cnc(-n2cc(C)cn2)nc1NCc1ccc2c(c1)OCO2`, the inhibition is 12.9% (inactive).

For `O=C(O)C1C2CCC(O2)C1C(=O)NC1CCCCC1` (centres undefined), the inhibition was 25% (inactive).

Regarding `CCOC(=O)c1sc2nc3c(SCC(=O)O)cc(C(=O)c4cc(F)ccc4O)cn3c(=O)c2c1C`, the inhibition is 67.8%.

In the case of `O=C(NC1(O)C(=O)c2ccccc2C1=O)c1ccc(C(F)(F)F)cc1`, the inhibition is 6.8% (inactive).

With `Cc1ccc(C(=O)NC2(O)C(=O)c3ccccc3C2=O)cc1C`, the inhibition is -0.875% (inactive).

Turning to `COc1cnc(-c2ccccn2)nc1Sc1ccc(C)cc1`, the inhibition was 65.8%.

As to `Oc1ccccc1/C=N/Nc1cc(N2CCCC2)nc(N2CCCC2)n1`, the inhibition was 4.78% (inactive).

For the compound `CCOC(=O)c1cnc(-n2nc(C)cc2C)nc1NCCc1ccccc1`, the inhibition is 65.2%.

Take `COc1cnc(-c2ccccn2)nc1Oc1cccc(Cl)c1`: the inhibition is 49.5%.

Take `CCOC(=O)c1cnc(-n2nc(C)cc2C)nc1NC1CCCCC1`: the inhibition is 57.6%.

Take `COc1ccc(NC(=O)C2C3CCC(O3)C2C(=O)O)c(OC)c1` (centres undefined): the inhibition was 34.9%.

`COc1cnc(-c2ccccn2)nc1Sc1ccc(F)cc1`: the inhibition is 52.5%.

Regarding `O=C(Nc1nc(-c2ccccn2)cs1)C1CC(=O)N(c2ccc3c(c2)OCCO3)C1` (centres undefined), the inhibition was 49.4%.

For the compound `Oc1cccc(/C=N/Nc2cc(N3CCCC3)nc(N3CCCC3)n2)c1`, the inhibition is 23.5% (inactive).

Consider `O=c1[nH]c(Nc2ccccc2)cc2ccccc12`, for which the inhibition is 9.24% (inactive).

Regarding `O=C(O)c1cc(-c2ccc(Cl)cc2)n(-c2cccc(Cl)c2)n1`, the inhibition was 57.5%.

With `COc1cnc(-c2ccccn2)nc1Sc1cccc(Cl)c1`, the inhibition was 67.6%.

On to `Oc1ccc(/C=N/Nc2cc(N3CCOCC3)nc(N3CCOCC3)n2)c(O)c1`, for which the inhibition is 5.24% (inactive).

For `CCOC(=O)c1cnc(-n2nc(C)cc2C)nc1NC(C)c1ccccc1` (centres undefined), the inhibition is 68.8%.

As for `COc1ccc(CN2C(=O)Cc3c2nc(N)c2c(N)nc(N4CCCCC4)c(C#N)c32)cc1`, the inhibition was 6.16% (inactive).

As for `N#Cc1c(N2CCCC(O)C2)nc(N)c2c(N)nc3c(c12)CC(=O)N3C12CC3CC(CC(C3)C1)C2` (centres undefined), the inhibition was 8.91% (inactive).

Consider `O=C(NC1(O)C(=O)c2ccccc2C1=O)c1ccccc1`, for which the inhibition is -2.88% (inactive).

Regarding `CC(=O)C(C(C)=O)C1(O)C(=O)c2ccccc2C1=O`, the inhibition was 0.756% (inactive).

On to `COc1cnc(-c2ccccn2)nc1Sc1ccc(Cl)cc1`, for which the inhibition was 53.2%.

`COc1cnc(-c2ccccn2)nc1Oc1cccc(C(F)(F)F)c1`: the inhibition was -4.5% (inactive).

On to `COc1ccc(NC(=S)Nc2ccc3nsnc3c2)cc1`, for which the inhibition was 2.7% (inactive).

As for `Cc1ccc(-n2nc(C(=O)O)cc2-c2ccc(Cl)cc2)cc1`, the inhibition is 56%.

Turning to `COc1ccc(Cl)cc1C(=O)Nc1cccc(-c2ccc3nncn3n2)c1`, the inhibition is 60.4%.

As for `Clc1ccc(-n2nnnc2-c2cnc(-c3ccccn3)nc2-c2cccs2)cc1`, the inhibition is 67.4%.

Turning to `Nc1cc2nsnc2cc1Br`, the inhibition was -4.44% (inactive).

With `O=C(O)c1cc(-c2ccc(Cl)c(Cl)c2)n(-c2ccccc2)n1`, the inhibition is 60.5%.

Take `COc1cnc(-c2ccccn2)nc1Sc1ccccc1`: the inhibition is 60.7%.

On to `O=C1Nc2ccccc2N2CCCC12` (centres undefined), for which the inhibition is -0.206% (inactive).

With `Cc1nnc(NC(=O)C2C3C=CC(O3)C2C(=O)O)s1` (centres undefined), the inhibition is 8.42% (inactive).

With `COc1ccccc1Sc1nc(-c2ccccn2)ncc1OC`, the inhibition is 65.9%.

In the case of `CCCCn1c(NC(=O)c2ccco2)c(C(=O)OCC)c2nc3ccccc3nc21`, the inhibition is -4% (inactive).

On to `Cc1cc(C)c(S(=O)(=O)/N=C2\C=C(Sc3ncn[nH]3)C(=O)c3ccccc32)cc1C`, for which the inhibition was 5.9% (inactive).

As to `Cc1ccc(C(=O)NNc2cc(N3CCCC3)nc(N3CCCC3)n2)cc1`, the inhibition was 3.05% (inactive).

Regarding `c1ccc(Nc2nc(-c3ccccn3)cs2)cc1`, the inhibition is 63.7%.

Turning to `CN1CCN(C(c2ccccn2)c2cc(Cl)c3cccnc3c2O)CC1` (centres undefined), the inhibition is 74%.

As to `Cc1[nH]n(-c2ccccc2)c(=O)c1C(c1ccc([N+](=O)[O-])cc1)c1c(C)[nH]n(-c2ccccc2)c1=O`, the inhibition is -0.696% (inactive).

As for `CCOC(=O)C1=C(C)OC2(O)c3ccccc3C(=O)C12O` (centres undefined), the inhibition is 18.6% (inactive).

`O=S(=O)(Cc1cc(NCc2ccccc2)nc(-c2ccccn2)n1)c1ccccc1`: the inhibition is 44.6%.
